These results are taken from patent publication US10781197B2, “Sulfonamide analogues of galiellalactone” (GLACTONE PHARMA DEVELOPMENT AB, priority 2016, dated 2020).

For one experiment, the system named is STAT3 signaling. In words: STAT3 Luciferase reporter gene assay. The experiment is classed as cell-based.
Details: not given
How it is done: The ability to inhibit STAT3 signaling of the example compounds in comparison to galiellalactone was evaluated using a STAT3 Luciferase reporter gene assay.
Compounds were tested for dose response activity to determine IC50 at eight different doses (0.03, 0.1, 0.3, 1, 3, 10, 30 and 100 μM) in triplicate on the STAT3 reporter system.
Briefly, the STAT3 reporter/HEK293 cell line was plated in 96-well white plates for 16 h. Cells were pretreated with compounds for 1 h. Cells were then treated with IL-6 to induce STAT3 activation for 16 h. Luciferase activity was measured and analyzed.
For `Cc1ccc(S(=O)(=O)N(C)[C@@]2(C)C=C3C(=O)O[C@@H]4CC[C@H](C2)[C@]34O)cc1` [Example 23, N-[(4R,7R,9R,11 S)-11-Hydroxy-9-methyl-2-oxo-3-oxatricyclo[5.3.1.0^4,11]undec-1(10)-en-9-yl]-N,4-dimethylbenzene-1-sulfonamide], the “activity in the STAT3 reporter assay (in words)” value (shortened to “activity”) was “significantly reduced or total loss of activity”. Consider `CC(C)S(=O)(=O)N[C@@]1(C)C=C2C(=O)O[C@@H]3CC[C@H](C1)[C@]23O` [Example 24, N-[(4R,7R,9R,11 S)-11-Hydroxy-9-methyl-2-oxo-3-oxatricyclo[5.3.1.0^4,11]undec-1(10)-en-9-yl]propane-2-sulfonamide], for which the “activity” value is given as “significantly reduced or total loss of activity”.

Staying with this experiment, now noted: Homo sapiens; STAT3 reporter/HEK293 cell line, 1 h pretreatment, IL-6 induced for 16 h, luciferase activity; read-out: IC50.
For `C[C@]1(NS(=O)(=O)c2ccccc2)C=C2C(=O)O[C@@H]3CCC(C1)[C@]23O` (stereo partly drawn) [Example 2, N-[(4R,7R,9R,11S)-11-Hydroxy-9-methyl-2-oxo-3-oxatricyclo[5.3.1.0^4,^11]undec-1(10)-en-9-yl]benzenesulfonamide], the IC50 stood at 3 µM.

As for `COc1ccc(S(=O)(=O)N[C@@]2(C)C=C3C(=O)O[C@@H]4CCC(C2)[C@]34O)cc1` (stereo partly drawn) [Example 3, N-[(4R,7R,9R,11S)-11-Hydroxy-9-methyl-2-oxo-3-oxatricyclo[5.3.1.0^4,^11]undec-1(10)-en-9-yl]-4-methoxybenzene-1-sulfonamide], the IC50 was 8.41 µM. Consider `C[C@]1(NS(=O)(=O)c2ccccc2[N+](=O)[O-])C=C2C(=O)O[C@@H]3CCC(C1)[C@]23O` (stereo partly drawn) [Example 4, N-[(4R,7R,9R,11S)-11-Hydroxy-9-methyl-2-oxo-3-oxatricyclo[5.3.1.0^4,^11]undec-1(10)-en-9-yl]-2-nitrobenzene-1-sulfonamide], for which the IC50 was 6.71 µM. Still for that read-out and setting: the same measure for `C[C@]1(NS(=O)(=O)c2ccc(C(F)(F)F)cc2)C=C2C(=O)O[C@@H]3CCC(C1)[C@]23O` (stereo partly drawn) [Example 5, N-[(4R,7R,9R,11S)-11-Hydroxy-9-methyl-2-oxo-3-oxatricyclo[5.3.1.0^4,^11]undec-1(10)-en-9-yl]-4-(trifluoromethyl)benzene-1-sulfonamide]: 1.76 µM. The same measure, in the same setting: the same measure for `Cc1cccc(S(=O)(=O)N[C@@]2(C)C=C3C(=O)O[C@@H]4CCC(C2)[C@]34O)c1` (stereo partly drawn) [Example 6, N-[(4R,7R,9R,11S)-11-Hydroxy-9-methyl-2-oxo-3-oxatricyclo[5.3.1.0^4,^11]undec-1(10)-en-9-yl]-3-methylbenzene-1-sulfonamide]: 6.76 µM; for `C[C@]1(NS(=O)(=O)c2ccccc2F)C=C2C(=O)O[C@@H]3CCC(C1)[C@]23O` (stereo partly drawn) [Example 7, 2-Fluoro-N-[(4R,7R,9R,11S)-11-hydroxy-9-methyl-2-oxo-3-oxatricyclo[5.3.1.0^4,^11]undec-1(10)-en-9-yl]benzene-1-sulfonamide]: 4.69 µM. Still for that read-out and setting: the same measure for `C[C@]1(NS(=O)(=O)c2ccc([N+](=O)[O-])cc2)C=C2C(=O)O[C@@H]3CCC(C1)[C@]23O` (stereo partly drawn) [Example 8, N-[(4R,7R,9R,11S)-11-Hydroxy-9-methyl-2-oxo-3-oxatricyclo[5.3.1.0^4,^11]undec-1(10)-en-9-yl]-4-nitrobenzene-1-sulfonamide]: 5.05 µM; for `C[C@]1(NS(=O)(=O)c2ccc(C#N)cc2)C=C2C(=O)O[C@@H]3CCC(C1)[C@]23O` (stereo partly drawn) [Example 9, 4-Cyano-N-[(4R,7R,9R,11S)-11-hydroxy-9-methyl-2-oxo-3-oxatricyclo[5.3.1.0^4,^11]undec-1(10)-en-9-yl]benzene-1-sulfonamide]: 9.31 µM. `C[C@]1(NS(=O)(=O)c2ccc(Br)cc2)C=C2C(=O)O[C@@H]3CCC(C1)[C@]23O` (stereo partly drawn) [Example 10, 4-Bromo-N-[(4R,7R,9R,11S)-11-hydroxy-9-methyl-2-oxo-3-oxatricyclo[5.3.1.0^4,^11]undec-1(10)-en-9-yl]benzene-1-sulfonamide]: the half-inhibitory concentration (IC50) amounted to 3.2 µM. Still for that read-out and setting: the same measure for `C[C@]1(NS(=O)(=O)c2ccc(C3=NCCO3)cc2)C=C2C(=O)O[C@@H]3CCC(C1)[C@]23O` (stereo partly drawn) [Example 11, 4-(4,5-Dihydro-1,3-oxazol-2-yl)-N-[(4R,7R,9R,11S)-11-hydroxy-9-methyl-2-oxo-3-oxatricyclo[5.3.1.0^4,^11]undec-1(10)-en-9-yl]benzene-1-sulfonamide]: 0.24 µM; for `Cc1ccc(S(=O)(=O)N[C@@]2(C)C=C3C(=O)O[C@@H]4CCC(C2)[C@]34O)nc1` (stereo partly drawn) [Example 12, N-[(4R,7R,9R,11S)-11-Hydroxy-9-methyl-2-oxo-3-oxatricyclo[5.3.1.0^4,^11]undec-1(10)-en-9-yl]-5-methylpyridine-2-sulfonamide]: 3.38 µM. The same measure, in the same setting: the same measure for `Cc1ccc(S(=O)(=O)N[C@@]2(C)C=C3C(=O)O[C@@H]4CCC(C2)[C@]34O)cn1` (stereo partly drawn) [Example 13, N-[(4R,7R,9R,11S)-11-Hydroxy-9-methyl-2-oxo-3-oxatricyclo[5.3.1.0^4,^11]undec-1(10)-en-9-yl]-6-methylpyridine-3-sulfonamide]: 5.65 µM; for `Cc1ccc(S(=O)(=O)N[C@@]2(C)C=C3C(=O)O[C@@H]4CCC(C2)[C@]34O)s1` (stereo partly drawn) [Example 14, N-[(4R,7R,9R,11S)-11-Hydroxy-9-methyl-2-oxo-3-oxatricyclo[5.3.1.0^4,^11]undec-1(10)-en-9-yl]-5-methylthiophene-2-sulfonamide]: 6.78 µM; for `C[C@]1(NS(=O)(=O)c2ccc(C(F)(F)F)cc2Cl)C=C2C(=O)O[C@@H]3CCC(C1)[C@]23O` (stereo partly drawn) [Example 15, 2-Chloro-N-[(4R,7R,9R,11S)-11-hydroxy-9-methyl-2-oxo-3-oxatricyclo[5.3.1.0^4,^11]undec-1(10)-en-9-yl]-4-(trifluoromethyl)benzene-1-sulfonamide]: 2.9 µM.

Take `Cc1ccc(S(=O)(=O)N[C@@]2(C)C=C3C(=O)O[C@@H]4CCC(C2)[C@]34O)cc1F` (stereo partly drawn) [Example 16, 3-Fluoro-N-[(4R,7R,9R,11S)-11-hydroxy-9-methyl-2-oxo-3-oxatricyclo[5.3.1.0^4,^11]undec-1(10)-en-9-yl]-4-methylbenzene-1-sulfonamide]: the IC50 worked out at 4.5 µM. The same measure, in the same setting: the same measure for `C[C@]1(NS(=O)(=O)c2ccc(F)cc2)C=C2C(=O)O[C@@H]3CCC(C1)[C@]23O` (stereo partly drawn) [Example 17, 4-Fluoro-N-[(4R,7R,9R,11S)-11-hydroxy-9-methyl-2-oxo-3-oxatricyclo[5.3.1.0^4,^11]undec-1(10)-en-9-yl]benzene-1-sulfonamide]: 3.16 µM; for `C[C@]1(NS(=O)(=O)c2ccc(Cl)cc2)C=C2C(=O)O[C@@H]3CCC(C1)[C@]23O` (stereo partly drawn) [Example 18, 4-Chloro-N-[(4R,7R,9R,11S)-11-hydroxy-9-methyl-2-oxo-3-oxatricyclo[5.3.1.0^4,^11]undec-1(10)-en-9-yl]benzene-1-sulfonamide]: 2.26 µM; for `Cc1ccc(CS(=O)(=O)N[C@@]2(C)C=C3C(=O)O[C@@H]4CCC(C2)[C@]34O)cc1` (stereo partly drawn) [Example 19, N-[(4R,7R,9R,11S)-11-Hydroxy-9-methyl-2-oxo-3-oxatricyclo[5.3.1.0^4,^11]undec-1(10)-en-9-yl]-1-(4-methylphenyl)methanesulfonamide]: 9.69 µM.

On to `C[C@]1(NS(=O)(=O)c2ccc(N)cc2)C=C2C(=O)O[C@@H]3CC[C@H](C1)[C@]23O` [Example 21, 4-Amino-N-[(4R,7R,9R,11 S)-11-hydroxy-9-methyl-2-oxo-3-oxatricyclo[5.3.1.0^4,11]undec-1(10)-en-9-yl]benzene-1-sulfonamide], for which the IC50 was 3.63 µM. Still for that read-out and setting: the same measure for `C[C@]1(NS(=O)(=O)c2ccc(CO)cc2)C=C2C(=O)O[C@@H]3CC[C@H](C1)[C@]23O` [Example 22, N-[(4R,7R,9R,11S)-11-Hydroxy-9-methyl-2-oxo-3-oxatricyclo[5.3.1.0^4,11]undec-1(10)-en-9-yl]-4-(hydroxymethyl)benzene-1-sulfonamide]: 11.4 µM; for `CC(C)S(=O)(=O)N[C@@]1(C)C=C2C(=O)O[C@@H]3CC[C@H](C1)[C@]23O` [Example 24, N-[(4R,7R,9R,11 S)-11-Hydroxy-9-methyl-2-oxo-3-oxatricyclo[5.3.1.0^4,11]undec-1(10)-en-9-yl]propane-2-sulfonamide]: 97 µM; for `COc1ccc(CN2C(=O)C3=C[C@](C)(NS(=O)(=O)c4ccc(C)cc4)CC4CC[C@@H]2[C@@]34O)cc1` (stereo partly drawn) [Example 25, N-[(4R,7R,9R,11S)-11-hydroxy-3-[(4-methoxyphenyl)methyl]-9-methyl-2-oxo-3-azatricyclo[5.3.1.04,^11]undec-1(10)-en-9-yl]-4-methylbenzene-1-sulfonamide]: 3.7 µM. For the compound `COc1ccc(CN2C(=O)C3=C[C@](C)(NS(=O)(=O)c4ccc(C(F)(F)F)cn4)CC4CC[C@@H]2[C@@]34O)cc1` (stereo partly drawn) [Example 26, N-[(4R,7R,9R,11S)-11-Hydroxy-3-[(4-methoxyphenyl)methyl]-9-methyl-2-oxo-3-azatricyclo[5.3.1.04,^11]undec-1(10)-en-9-yl]-5-(trifluoromethyl)pyridine-2 sulfonamide], the concentration for half-maximal inhibition (IC50) was 8.64 µM.

Regarding `C[C@]1(NS(=O)(=O)c2ccc(C(F)(F)F)cn2)C=C2C(=O)N(Cc3ccc(C#N)cc3)[C@@H]3CC[C@H](C1)[C@]23O` [Example 27, N-[(4R,7R,9R,11S)-3-[(4-Cyanophenyl)methyl]-11-hydroxy-9-methyl-2-oxo-3-azatricyclo[5.3.1.0^4,11]undec-1 (10)-en-9-yl]-5-(trifluoromethyl)pyridine-2-sulfonamide], the concentration for half-maximal inhibition (IC50) is 8.61 µM.

Still in this experiment, the particulars now being: STAT3 reporter/HEK293 cell line, 1 h pretreatment, IL-6 induced for 16 h, luciferase activity.
Regarding `Cc1ccc(S(=O)(=O)N(C)[C@@]2(C)C=C3C(=O)O[C@@H]4CC[C@H](C2)[C@]34O)cc1` [Example 23, N-[(4R,7R,9R,11 S)-11-Hydroxy-9-methyl-2-oxo-3-oxatricyclo[5.3.1.0^4,11]undec-1(10)-en-9-yl]-N,4-dimethylbenzene-1-sulfonamide], the 50% inhibitory concentration (IC50) entry is “inactive”.

The experiment is the same for the next values; noted with them: listed as example 23.
For the compound `Cc1ccc(S(=O)(=O)N(C)[C@@]2(C)C=C3C(=O)O[C@@H]4CC[C@H](C2)[C@]34O)cc1` [Example 23, N-[(4R,7R,9R,11 S)-11-Hydroxy-9-methyl-2-oxo-3-oxatricyclo[5.3.1.0^4,11]undec-1(10)-en-9-yl]-N,4-dimethylbenzene-1-sulfonamide], the “activity” value is “no or low activity”.

The same experiment, now with this note: listed as example 24.
As for `CC(C)S(=O)(=O)N[C@@]1(C)C=C2C(=O)O[C@@H]3CC[C@H](C1)[C@]23O` [Example 24, N-[(4R,7R,9R,11 S)-11-Hydroxy-9-methyl-2-oxo-3-oxatricyclo[5.3.1.0^4,11]undec-1(10)-en-9-yl]propane-2-sulfonamide], the “activity” value was “no or low activity”.
